{
  "source": "patent US9764001B2",
  "about": "“Target for diagnosis and treatment of diabetes and cardiovascular diseases” (The Regents of the University of California, priority 2012, dated 2017)",
  "key": {"[1]": {"test_system": "Min6 cells", "test": "Palmitate-induced ICER-1 and beta cell gene expression in Min6 cells (quantitative realtime RT-PCR)", "assay_type": "cell-based, mouse", "details": "palmitate 0.4 mM, FKN 100 ng/ml, U0126 10 μM, 48 h", "procedure": "Min6 cells were incubated with palmitate (Pal; 0.4 mM) in the presence or absence of FKN (100 ng/ml) or U0126 (10 μM). 48 h later, cells were harvested and subjected to quantitative realtime RT-PCR."}, "[2]": {"test_system": "Min6 cells", "test": "Intracellular calcium level measurement (fura-2) in Min6 cells", "assay_type": "cell-based, mouse", "procedure": "(FIGS. 6C to 6I) Intracellular calcium level in Min6 mouse beta cells in the presence or absence of glucose (FIG. 6C, with glucose; FIG. 6D, without glucose), nimodipine (10 μM) (FIG. 6E), control antibody (FIG. 6F), anti-CX3CR1 neutralizing antibody (FIG. 6G), PTX (250 ng/ml) (FIG. 6H), or U0126 (10 μM) (FIG. 6I). Mean+/−SEM.\n(FIGS. 15A-1 to 15B-3) Intracellular calcium level in Min6 cells. Min6 cells were incubated in 2.8 mM glucose media with or without U0126 (10 μM) for 30 minutes, and then subjected to intracellular calcium measurement in the presence or absence of arginine (10 mM) and/or high glucose (16.7 mM) challenge. (FIGS. 15A-1 to 15A-3) Intracellular calcium level with arginine treatment. (FIGS. 15B-1 to 15B-3) Intracellular calcium level with arginine plus high glucose (16.7 mM) treatment. Area under the curve for first 90 (FIG. 15B-1) or 60 (FIG. 15B-2) seconds was graphed in FIG. 15B-3.\nThe Cytoplasmic free calcium ion concentration in Min6 cells was measured by fura-2 fluorescence ratio digital imaging. Briefly, Min6 cells, grown on coverslips, were loaded with 5 μM fura-2 AM [dissolved in 0.01% Pluronic F-127 plus 0.1% DMSO in KRB] at room temperature for 60 min and then washed in fresh KRB for 30 min. The coverslips with Min6 cells were mounted in a perfusion chamber on a Nikon microscope stage."}, "[3]": {"test_system": "Min6 cells", "test": "GSIS test using Min6 cells", "assay_type": "cell-based, mouse", "details": "for glucose- and arginine plus glucose-stimulated insulin secretion: U0126 10 μM, arginine 10 mM, glucose 16.7 mM", "procedure": "(FIG. 6B) GSIS test using Min6 cells with or without FKN (100 ng/ml) or U0126 (10 μM). Mean+/−SEM.\nMin6 cells were incubated in 2.8 mM glucose media with or without U0126 (10 μM) for 30 minutes, and then subjected to intracellular calcium measurement in the presence or absence of arginine (10 mM) and/or high glucose (16.7 mM) challenge."}, "[4]": {"test_system": "primary mouse islets", "test": "Static GSIS test using primary mouse islets", "assay_type": "cell-based", "details": "FKN 100 ng/ml; PTX 250 ng/ml, Wortmannin 10 μM, PD98059 50 μM", "procedure": "(FIGS. 6A-1 to 6A-4) GSIS test using primary mouse islets with or without pertussis toxin (PTX; 250 ng/ml), Wortmannin (Wort; 10 μM), or PD98059 (50 μM), in the presence or absence of FKN (100 ng/ml). Mean+/−SEM, n=6 per group.\nIsolated mouse islets were cultured overnight in mouse islet media (DMEM containing 1 g/L glucose, 10% v/v FBS, 0.1% v/v Penicillin/Streptomycin)."}, "[5]": {"test_system": "Min6 cells", "test": "ERK phosphorylation western blot in Min6 cells", "assay_type": "cell-based, mouse", "details": "PTX 250 ng/ml pre-treatment 15 min", "protocol": "FIG. 14. FKN stimulates ERK phosphorylation in a PTX-sensitive manner (related to FIGS. 6A-1 to 6Q-4). Min6 cells were pre-treated with DMSO (control), U0126 (10 μM), or PTX (250 ng/ml) for 15 min, and then incubated with or without FKN (100 ng) for 15 min. Cells were harvested and subjected to western blot."}, "[6]": {"test_system": "human islets", "test": "Static GSIS studies using human islets", "assay_type": "cell-based"}},
  "note": "Entries after “also recorded” stand apart in the source; their conditions may differ. Like-named read-outs stand apart in the source and are kept apart here.",
  "data": [
    {"molecule": "N#CC(=C(/N)Sc1ccccc1N)/C(C#N)=C(\\N)Sc1ccccc1N", "note": "[U0126]", "values": [
      {"measurement": "effect of MEK inhibitor on FKN effects on ICER-1, NeuroD, PDX-1 and Glut2 expression", "setting": "[1]", "result": "abolished"},
      {"measurement": "arginine plus glucose-stimulated intracellular calcium increase", "setting": "[2]", "result": "attenuated; also recorded: reduces"},
      {"measurement": "effect on FKN-induced intracellular calcium increase", "setting": "[2]", "result": "blocked"},
      {"measurement": "effect on FKN potentiation of glucose and GLP1-induced insulin secretion", "setting": "[3]; FIG. 6B: U0126 10 μM, FKN 100 ng/ml", "result": "suppressed"},
      {"measurement": "glucose- and arginine plus glucose-stimulated insulin secretion", "setting": "[3]", "result": "reduces"},
      {"measurement": "glucose- and arginine plus glucose-stimulated insulin secretion", "setting": "[3]; listed as MEK inhibitor", "result": "attenuated"}
    ]},
    {"molecule": "pertussis toxin", "values": [
      {"measurement": "effect of inhibitor on FKN-stimulated insulin secretion", "setting": "[4]", "result": "inhibited"},
      {"measurement": "sensitivity of FKN-stimulated ERK phosphorylation to inhibitor", "setting": "[5]", "result": "PTX-sensitive"},
      {"measurement": "effect on FKN-induced intracellular calcium increase", "setting": "[2]; PTX 250 ng/ml, U0126 10 μM, anti-CX3CR1 antibody vs control antibody", "result": "blocked"}
    ]},
    {"molecule": "COc1cccc(-c2cc(=O)c3ccccc3o2)c1N", "note": "[PD98059]", "values": [
      {"measurement": "effect of inhibitor on FKN-stimulated insulin secretion", "setting": "[4]", "result": "inhibited"}
    ]},
    {"molecule": "human FKN: human fractalkine used on isolated human islets (100 or 400 ng/ml) (protein, UniProt P78423 25-397, looked up) Fractalkine: QHHGVTKCNITCSKMTSKIPVALLIHYQQNQASCGKRAIILETRQHRLFCADPKEQWVKDAMQHLDRQAAALTRNGGTFEKQIGEVKPRTTPAAGGMDESVVLEPEATGESSSLEPTPSSQEAQRALGTSPELPTGVTGSSGTRLPPTPKAQDGGPVGTELFRVPPVSTAATWQSSAPHQPGPSLWAEAKTSEAPSTQDPSTQASTASSPAPEENAPSEGQRVWGQGQSPRPENSLEREEMGPVPAHTDAFQDWGPGSMAHVSVVPVSSEGTPSREPVASGSWTPKAEEPIHATMDPQRLGVLITPVPDAQAATRRQAVGLLAFLGLLFCLGVAMFTYQSLQGCPRKMAGEMAEGLRYIPRSCGSNSYVLVPV", "values": [
      {"measurement": "increase in GSIS", "setting": "[6]; at the maximal concentration (100 or 400 ng/ml tested)", "result": 65, "unit": "%"},
      {"measurement": "GSIS dose response", "setting": "[6]; human FKN 100 or 400 ng/ml", "result": "dose responsive increase"}
    ]}
  ]
}
